# Measurements: patent publication US7884093B2, “Progesterone for the treatment or prevention of spontaneous preterm birth” (priority 2007, dated 2011)
# Legend:
# [1] = system: pregnant women with a history of spontaneous preterm birth; assay: Randomized, double-blind, placebo-controlled trial of vaginal progesterone gel on preterm birth; format: in vivo, human
# Procedure: In light of the state of the art, a study was conducted to examine the effects of progesterone on preterm labor and premature birth in women with a history of a previous preterm birth. […] The selection, categorization, and breakdown of the two groups is outlined in the flow chart of FIG. 2. The study was a prospective, randomized, placebo-controlled, double-blind, multicenter trial in pregnant subjects at high risk of spontaneous preterm delivery. The study participants were screened from 16 0/7 and 22 6/7 weeks gestational age. Subjects were randomized to drug or placebo from 18 0/7 to 22 6/7 weeks.
# (§1) Subjects meeting the study criteria were enrolled by the investigator between 18 0/7 and 22 6/7 weeks and received identically packaged, sequentially numbered progesterone or placebo vaginal gel in a 1:1 ratio. A SAS (SAS Institute Inc., Cary, N.C., USA) procedure for variable block size was used to generate a randomization schedule stratified by study site and by inclusion criteria (prior preterm birth or short cervix). Quintiles, Inc. (Kansas City, Mo., USA) generated the randomization sequences, which were confidentially provided to the packaging company. Treatment allocation was concealed by an identical packaging and labelling process performed by Aptuit, Inc. (Mount Laurel, N.J., USA). The study patients, obstetric care providers, study investigators, study coordinators, and study monitors were blind to the exposure status (progesterone or placebo) of all study patients.
# Subjects were randomized in a 1:1 ratio to receive PROCHIEVE® 8% (vaginally administered 90 mg natural progesterone gel) or placebo vaginal gel. All women performed self-dosing on a daily basis of their assigned study medication, either PROCHEIVE® (progesterone) or placebo.
# Statistical analysis was based on the intent-to-treat principle.
# Patients who were currently or previously enrolled in another investigational study within 1 month prior to screening for the present study were not included in the trial. Patients were also restricted from participation in the trial if the present pregnancy was complicated by a major fetal anomaly or a known chromosome disorder, or was a multifetal gestation. Patients with a cervical cerclage in place, or those intending to have one placed during the current pregnancy, were excluded from study participation, as were those with signs of preterm rupture of membranes, vaginal bleeding, amnionitis, or preterm labor at enrollment.
# The study drug was packaged and labelled according to the 1:1 randomization scheme provided by Quintiles, Inc (Kansas City, Mo., USA). A SAS (SAS Institute Inc., Cary, N.C., USA) procedure for variable block size was used to generate the randomization schedule stratified by study site. […] The study drug (Prochieve® 8% progesterone gel) and placebo (Replens®) were provided by Columbia Laboratories, Inc. (Livingston, N.J., USA). Patients were instructed to self-administer the full applicator of vaginal gel at approximately the same time daily, preferably in the morning. Patients received a 2-week supply of the allocated treatment at the time of randomization, and at every 2-week study visit thereafter. All drug supplies were to be brought in at each visit at all study centers, and compliance with the study medication was determined from returned empty wrappers and unused wrappers. Percent compliance was assessed as total treatment duration compliance: (total applicators used/total dosing days)×100. Total dosing days was defined as the interval from enrollment to either the date of preterm premature rupture of membranes, the date of preterm birth without accompanying ruptured membranes, or 37 0/7 weeks' gestation.
# The occurrence of adverse events was queried at each 2-week study visit at all centers by asking if the patient had any complaints or problems. Subjects received an extra 1-week drug supply when treatment was initiated in case they could not make the next regularly scheduled appointment.
# [2] = system: pregnant women with a short cervix; assay: Randomized trial, analysis of women with a shortened cervix in the midtrimester; format: in vivo, human
# Procedure: The study further included women without a history of preterm birth and having a short cervix at the time of enrollment. […] The lowest quartile (≦3.2 cm) was combined with the short cervix only patients and subdivided sequentially and the primary and secondary outcomes for women with cervical lengths of ≦3.0 cm and <2.8 cm at the time of enrollment were analyzed. There were an insufficient number of patients with even shorter cervical lengths available for further analysis. For the purposes of the study, the criteria for short cervix was set at less than 2.8 cm.
# The study included women with a documented history of spontaneous preterm birth (<35 weeks) in a singleton pregnancy in the immediate preceding parity regardless of cervical length, and women without a history of preterm birth but with midtrimester cervical shortening (≦2.5 cm) in the current pregnancy were offered enrollment in the study at 18 0/7-22 6/7 weeks of gestation. Recruitment began in April 2004 and the last patient delivered Jan. 8, 2007.
# Therefore, women were excluded if any of the following conditions were present: age <18 or >45 years; multifetal gestation; history of an adverse reaction to progesterone or any component present in the treatment medication; treatment with progesterone within 4 weeks preceding enrollment; or current treatment for a seizure disorder, psychiatric disorder, or chronic hypertension. […] Patients who were currently or previously enrolled in another investigational study within one month prior to randomization were not included.
# Patients were also restricted from participation in the trial if the present pregnancy was complicated by a major fetal anomaly or a known chromosome disorder. Patients with a cervical cerclage in place, or those intending to have one placed during the current pregnancy, were excluded from the study, as were those with signs of preterm rupture of membranes, vaginal bleeding, amnionitis, or preterm labor at enrollment.
# as §1, with “Women with a history of spontaneous preterm birth in the preceding pregnancy regardless of cervical length or women without a history of preterm birth but with midtrimester cervical shortening in the current pregnancy were screened by the investigator or study coordinator between 16 0/7 and 22 6/7 weeks of gestation. Prior history of spontaneous preterm birth was confirmed by evaluation of the patient's medical records before enrollment. Gestational age was based on the patient's last menstrual period and correlated with an ultrasound biometry algorithm. Each patient had at least one ultrasound examination before randomization to confirm gestational age and rule out major fetal anomalies, and a transvaginal scan to determine the length of the cervix. Subjects” for “Subjects”
# (§2) Following randomization, daily treatment was initiated by the patient and continued until 37 0/7 weeks' gestational age, occurrence of preterm rupture of membranes, or delivery. Each patient was evaluated at 2-week intervals. All subjects had another transvaginal ultrasound to determine cervical length at 28 weeks of gestation.
# [3] = system: cervix length of pregnant women; assay: Cervical length by transvaginal ultrasound at baseline and at 28 weeks of gestation; format: in vivo, human; settings: baseline to 28 weeks gestation, all participants, 6-10 weeks of dosing
# Procedure: as §2
# Prior to beginning the study, baseline measurements of each of the participant's cervical length were taken and are summarized in FIG. 1. During the study, cervical length measurements were made by ultrasound at both baseline and later at 28 weeks after a period of 6-10 weeks of dosing. The mean cervix length of 3.7 cm was the same for both the treatment and placebo groups, and the range of cervical length for all participants was between 1.1 cm and 7.9 cm. At 28 weeks gestation, each participant's cervix was re-measured and the data was compared to the baseline data, and an unexpected and surprising finding was discovered.
# [4] = system: pregnant women at risk of preterm birth; settings: cited from earlier work
# [5] = ITT, history of spontaneous preterm birth
# [6] = neonates, history of spontaneous preterm birth
# [7] = baseline cervical length ≦3.0 cm, total 58
# [8] = cervical length <2.8 cm, versus placebo
compound,measurement,setting,value
CC(=O)[C@H]1CC[C@H]2[C@@H]3CCC4=CC(=O)CC[C@]4(C)[C@H]3CC[C@]12C [progesterone],admissions for preterm labor,[1]; [5],25.6%
same,head circumference of the neonates,[1]; [5],32.3±3.34 cm
same,mean birth weight of the neonates,[1]; [5],2680±710 gm
same,mean gestational age at delivery,[1]; [5],36.6 weeks
same,rate of preterm birth at <37 0/7 weeks,[1]; [5],41.7%
same,rate of preterm birth at ≦28 0/7 weeks,[1]; [5],3.2%
same,rate of preterm birth at ≦35 0/7 weeks,[1]; [5],22.7%
same,rate of preterm rupture of membranes,[1]; [5],12.0%
same,rate of stillbirth/intrauterine fetal demise,[1]; [5],1.6%
same,rate of preterm birth at ≦32 0/7 weeks of gestation (primary outcome),"[1]; ITT, history of spontaneous preterm birth, 8% progesterone vaginal gel 90 mg once daily",10.0%
same,"1-minute APGAR score, median",[1]; neonates,8
same,"5-minute APGAR score, median",[1]; neonates,9
same,occurrence of grade 3 or 4 intraventricular haemorrhage,[1]; [6],0.3%
same,occurrence of necrotizing enterocolitis,[1]; [6],1.0%
same,occurrence of newborn respiratory distress syndrome,[1]; [6],11.0%
same,rate of admission to a neonatal intensive care unit,[1]; [6],17.5%
same,number of days from admission to delivery,[1]; patients admitted for treatment of preterm labor,30 days
same,"mean gestational age at delivery, infant morbidity or mortality, or other maternal or neonatal outcome measure","[1]; versus placebo, in words",no difference
same,treatment emergent adverse events,"[1]; versus placebo, in words",similar
same,frequency of preterm birth at ≦32 weeks,"[1]; versus placebo, in words, history of spontaneous preterm birth",did not decrease
same,frequency of preterm birth at ≦32 weeks,"[1]; versus placebo, in words, history of spontaneous preterm birth, listed as vaginal progesterone gel",does not effectively reduce
same,time to delivery (Kaplan-Meier curve),"[2]; baseline cervical length greater than 3.2 cm, versus placebo",no statistically significant difference
same,time to delivery (Kaplan-Meier curve),"[2]; baseline cervical length less than 2.8 cm, versus placebo",probability of not delivering over a longer gestation period
same,time to delivery (Kaplan-Meier curve),"[2]; baseline cervical length less than or equal to 3.0 cm, versus placebo",probability of not delivering over a longer gestation period
same,time to delivery (Kaplan-Meier curve),"[2]; baseline cervical length less than or equal to 3.2 cm, versus placebo",probability of not delivering over a longer gestation period
same,"Births >32 Weeks, Number","[2]; baseline cervical length ≦2.8 cm, total 19",19
same,"Births >32 Weeks, Number",[2]; [7],54
same,"Births ≦32 Weeks, Number",[2]; [7],4
same,NICU admissions,[2]; cervical length <2.8 cm,15.8%
same,fetal/infant deaths,[2]; cervical length <2.8 cm,none
same,length of NICU stay,[2]; cervical length <2.8 cm,1.1 days
same,"preterm deliveries at less than or equal to 28 weeks, number",[2]; cervical length <2.8 cm,no preterm deliveries
same,rate of neonatal respiratory distress syndrome,[2]; cervical length <2.8 cm,5.3%
same,total neonatal hospital days,[2]; cervical length <2.8 cm,5.8 days
same,rate of preterm birth at ≦32 weeks,"[2]; cervical length <2.8 cm at enrollment, 19 on progesterone",0%
same,reduction of the number of preterm delivery at less than 35 weeks,[2]; [8],about half
same,reduction of the number of preterm delivery at less than or equal to 37 weeks,[2]; [8],about half
same,delivering ≦32 weeks gestation,"[2]; short cervix only population, no history of preterm birth, 4 patients on progesterone",0
same,mean decrease in cervix length,[3],0.44 cm
same,occurrence of perinatal death,"[4]; Dodd et al. meta-analysis of randomized trials, versus placebo",no statistically significant difference
same,frequency of recurrent preterm birth,"[4]; O'Brien et al., high risk women selected by a history of spontaneous preterm birth, prophylactic vaginal gel",does not effectively reduce
